Source: US6548241B1, “Storage solution containing photosensitizer for inactivation of biological contaminants” (Gambro, Inc., priority 2000, dated 2003)
Converted amounts (≈) assume the structure as drawn. Like-named read-outs stand apart in the source and are kept apart here.

Columns and labels:
[1] = tested on: Staphylococcus aureus; experiment: Log inactivation of S. aureus in platelet concentrate, irradiation at 80 J/cm^2
[2] = tested on: Staphylococcus epidermidis; experiment: Log inactivation of S. epidermidis in platelet concentrate, irradiation at 80 J/cm^2
[3] = Photodecomposition in ACD-A upon exposure to UV light (365 nm); conditions: for % of Initial, 373 nm / % of Initial, 447 nm: 63 μg/mL in ACD-A, UV 365 nm
[4] = tested on: HSV-II; experiment: Inactivation of HSV-II in platelet concentrate and PC:media with ascorbate (log virus titre); conditions: 14 μM + 6 mM ascorbate
[5] = tested on: herpes simplex virus type II (HSV-II); experiment: Inactivation of HSV-II in platelet concentrates at varying photosensitizer concentrations; conditions: platelet concentrate, 80 J/cm^2, all three trials
[6] = assay type: physicochemical; conditions: for solubility thermodynamic at 1 h: thermodynamic from solid
Protocol: The mixture was agitated at room temperature for one hour and vortex mixed to ensure complete dissolution of the suspended material. […] This suspension was then centrifuged to remove undissolved material. The supernatant from this preparation was removed and analyzed using a spectrophotometer. The absorbance values of the solution were determined at 447 nm and 373 nm. From the extinction coefficients that were determined previously, it was possible to estimate the concentration of the saturated solution Solubility in ACD-A Anticoagulant The same procedure described above was repeated using ACD-A Anticoagulant.

[7] = tested on: Listeria monocytogenes; experiment: Log inactivation of Listeria monocytogenes in platelet concentrate, cuvette apparatus; assay type: cell-based
Protocol: Mixtures of platelet concentrates and platelet additive solutions are referred to herein as in “media.” Platelet concentrate without additive solution is referred to herein as in “plasma.” Both were spiked with Listeria monocytogenes. Vitamin K5 was then added to each in the amount of 300 μg/mL […]. Each was then exposed to UV, visible or room light in the cuvette apparatus of FIG. 5 with the results shown in Table 3.

Compound: Cc1cc2nc3[nH]c(=O)[nH]c(=O)c3nc2cc1C [7-8-dimethyl alloxazine]
- Log Inactivation (cfu/mL) ([1]; 7 μM in platelet concentrate): 1.6 Logs
- Log Inactivation (cfu/mL) ([2]; 7 μM in platelet concentrate): 2.9 Logs

Compound: Cc1cc2nc3c(=O)[nH]c(=O)nc-3n(C[C@H](O)[C@H](O)[C@H](O)COP(=O)(O)O)c2cc1C [alloxazine mononucleotide]
- Log Inactivation (cfu/mL) ([1]; 10 μM in platelet concentrate): 1.6 Logs
- Log Inactivation (cfu/mL) ([2]; 10 μM in platelet concentrate): 5.6 Logs

Compound: Cc1cc2nc3c(=O)[nH]c(=O)nc-3n(C[C@H](O)[C@H](O)[C@H](O)CO)c2cc1C [7,8-dimethyl-10-ribityl isoalloxazine]
- Log Inactivation (cfu/mL) ([1]; 10 μM in platelet concentrate): 1.9 Logs
- % of Initial, 373 nm ([3]; Irradiation Time 0): 100%
- % of Initial, 447 nm ([3]; Irradiation Time 0): 100%
- % of Initial, 373 nm ([3]; Irradiation Time 5): 87.3%
- % of Initial, 447 nm ([3]; Irradiation Time 5): 61.6%
- % of Initial, 373 nm ([3]; Irradiation Time 10): 90.5%
- % of Initial, 447 nm ([3]; Irradiation Time 10): 76.6%
- % of Initial, 373 nm ([3]; Irradiation Time 15): 100%
- % of Initial, 447 nm ([3]; Irradiation Time 15): 70%
- decomposition of the reagent (absorption profile at 373 nm) ([3]; over the entire irradiation period): no significant decomposition
- log virus titre ([4]; 30:70 PC:Media (PASIII), UV+VIS 0 J/cm^2, 0.0 Minutes): 5.6
- log virus titre ([4]; 30:70 PC:Media, UV+VIS 5 J/cm^2, 1.5 Minutes): 2.5
- log virus titre ([4]; 30:70 PC:Media, UV+VIS 10 J/cm^2, 3.0 Minutes): 2.5
- log virus titre ([4]; 30:70 PC:Media, UV+VIS 15 J/cm^2, 4.5 Minutes): 2.3
- log virus titre ([4]; 30:70 PC:Media, UV+VIS 20 J/cm^2, 6.0 Minutes): 1.8
- log virus titre ([4]; 30:70 PC:Media, UV+VIS 30 J/cm^2, 9.0 Minutes): 1.6
- log virus titre ([4]; 90:10 PC:Media, UV+VIS 0 J/cm^2): 5.6
- log virus titre ([4]; 90:10 PC:Media, UV+VIS 40 J/cm^2): 3.3
- Log Inactivation (cfu/mL) ([2]; 10 μM in platelet concentrate): 4.1 Logs
- inactivation of HSV-II [5]: complete inactivation
- solubility thermodynamic at 1 h ([6]; ACD-A Anticoagulant, aqueous buffer, ACD-A Anticoagulant, absorbance at 373 nm, read-out: Concentration (373) of saturated solution): 63 µg/mL (≈ 167 µM)
- solubility thermodynamic at 1 h ([6]; ACD-A Anticoagulant, aqueous buffer, ACD-A Anticoagulant, absorbance at 447 nm, read-out: Concentration (447) of saturated solution): 60.3 µg/mL (≈ 160 µM)
- Concentration (373) of saturated solution ([6]; ACD-A Anticoagulant, absorbance at 373 nm): 166 µM
- Concentration (447) of saturated solution ([6]; ACD-A Anticoagulant, absorbance at 447 nm): 160 µM
- solubility thermodynamic at 1 h ([6]; Isolyte S media, pH 7.4, saline or isotonic, Isolyte S, pH 7.4 media, room temperature, absorbance at 373 nm, read-out: Concentration (373) of saturated solution): 42 µg/mL (≈ 112 µM)
- solubility thermodynamic at 1 h ([6]; Isolyte S media, pH 7.4, saline or isotonic, Isolyte S, pH 7.4 media, room temperature, absorbance at 447 nm, read-out: Concentration (447) of saturated solution): 40.9 µg/mL (≈ 109 µM)
- Concentration (373) of saturated solution ([6]; Isolyte S, pH 7.4 media, room temperature, absorbance at 373 nm): 110 µM
- Concentration (447) of saturated solution ([6]; Isolyte S, pH 7.4 media, room temperature, absorbance at 447 nm): 109 µM

Compound: Cc1cc(N)c2ccccc2c1O [K5, Vitamin K5]
- Log Inactivation (cfu/mL) ([7]; K5 300 μg/mL in Media (20:80 platelet concentrate:Isolyte S), UV 365 nm, 40 J/cm^2): 4.2 Logs
- Log Inactivation (cfu/mL) ([7]; K5 300 μg/mL in Media, Room Light): 0 Logs
- Log Inactivation (cfu/mL) ([7]; K5 300 μg/mL in Media, VIS 419 nm, 40 J/cm^2): 4.2 Logs
- Log Inactivation (cfu/mL) ([7]; K5 300 μg/mL in Plasma (platelet concentrate without additive solution), UV 365 nm, 40 J/cm^2): 0.1 Logs
- Log Inactivation (cfu/mL) ([7]; K5 300 μg/mL in Plasma, Room Light): 0 Logs
- Log Inactivation (cfu/mL) ([7]; K5 300 μg/mL in Plasma, VIS 419 nm, 40 J/cm^2): 0.1 Logs
